According to article PMC8269394, “Characterization of an Atypical Trypanosoma brucei Hsp70 Demonstrates Its Cytosolic-Nuclear Localization and Modulation by Quercetin and Methylene Blue” (International Journal of Molecular Sciences, 2021):

Experiments:
Assay in all cases: ATPase assay, colorimetric phosphate release
Assay type in all cases: biochemical
TbHsp70.c [1] = molecular target: T1, TbHsp70.c (Trypanosoma brucei, UniProt Q383E9); details: 600 µM ATP; 37 °C; no Tbj2
T1 construct: gene Tb11.01.3080
T1 sequence (Q383E9 1-676): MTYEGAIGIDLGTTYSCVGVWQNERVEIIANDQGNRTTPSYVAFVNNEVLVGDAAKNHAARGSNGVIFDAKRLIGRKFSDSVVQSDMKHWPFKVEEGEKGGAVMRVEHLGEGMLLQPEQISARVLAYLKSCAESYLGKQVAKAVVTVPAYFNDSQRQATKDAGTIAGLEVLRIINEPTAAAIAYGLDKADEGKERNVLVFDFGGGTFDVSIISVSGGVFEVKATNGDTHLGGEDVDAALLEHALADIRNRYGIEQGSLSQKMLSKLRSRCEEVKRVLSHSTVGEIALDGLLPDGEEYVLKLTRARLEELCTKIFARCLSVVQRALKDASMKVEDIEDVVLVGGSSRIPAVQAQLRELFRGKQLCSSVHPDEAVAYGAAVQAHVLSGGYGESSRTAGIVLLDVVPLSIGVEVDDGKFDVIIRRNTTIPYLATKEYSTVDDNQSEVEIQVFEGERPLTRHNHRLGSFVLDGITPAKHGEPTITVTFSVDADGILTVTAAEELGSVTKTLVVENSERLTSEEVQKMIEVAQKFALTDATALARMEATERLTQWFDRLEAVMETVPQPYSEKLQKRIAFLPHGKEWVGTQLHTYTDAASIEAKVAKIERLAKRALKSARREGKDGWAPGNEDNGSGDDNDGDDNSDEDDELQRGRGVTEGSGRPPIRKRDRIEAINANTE

TcHsp70B [2] = molecular target: T2, TcHsp70B (Trypanosoma cruzi, UniProt P05456); details: 600 µM ATP; 37 °C; no Tbj2
T2 construct: gene HSP70
T2 sequence (P05456 whole entry): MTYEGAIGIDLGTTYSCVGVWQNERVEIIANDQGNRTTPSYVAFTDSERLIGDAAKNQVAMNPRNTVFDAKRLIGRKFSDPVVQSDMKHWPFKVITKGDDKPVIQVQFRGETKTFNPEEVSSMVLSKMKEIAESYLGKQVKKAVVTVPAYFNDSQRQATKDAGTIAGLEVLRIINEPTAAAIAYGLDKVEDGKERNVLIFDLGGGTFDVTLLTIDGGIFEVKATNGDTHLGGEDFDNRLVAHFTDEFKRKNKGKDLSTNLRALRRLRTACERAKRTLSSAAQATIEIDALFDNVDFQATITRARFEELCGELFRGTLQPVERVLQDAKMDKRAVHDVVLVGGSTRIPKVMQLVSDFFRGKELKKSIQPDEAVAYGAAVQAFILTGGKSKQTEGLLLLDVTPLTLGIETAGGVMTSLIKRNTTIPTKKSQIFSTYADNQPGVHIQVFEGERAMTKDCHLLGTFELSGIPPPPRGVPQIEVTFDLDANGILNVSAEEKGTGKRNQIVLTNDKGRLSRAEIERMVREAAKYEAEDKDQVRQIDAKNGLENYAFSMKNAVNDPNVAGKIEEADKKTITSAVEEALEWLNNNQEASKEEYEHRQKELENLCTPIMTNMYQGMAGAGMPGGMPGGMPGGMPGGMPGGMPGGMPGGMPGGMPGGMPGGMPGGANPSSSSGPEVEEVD

TbHsp70.c-Tbj2 [3] = molecular target: T3, TbHsp70.c-Tbj2 (Trypanosoma brucei, UniProt Q383E9); details: 30 µM methylene blue; 1 µM each protein; 600 µM ATP; 37 °C; activator
T3 construct: gene Tb11.01.3080; recombinant purified TbHsp70.c with recombinant co-chaperone Tbj2 at equal concentration; with Chaperone protein DnaJ, putative (type I J-protein Tbj2)
T3 sequence (Q383E9 1-676): as the sequence (Q383E9 1-676) above
T3 sequence (Q585V4 1-404 partner): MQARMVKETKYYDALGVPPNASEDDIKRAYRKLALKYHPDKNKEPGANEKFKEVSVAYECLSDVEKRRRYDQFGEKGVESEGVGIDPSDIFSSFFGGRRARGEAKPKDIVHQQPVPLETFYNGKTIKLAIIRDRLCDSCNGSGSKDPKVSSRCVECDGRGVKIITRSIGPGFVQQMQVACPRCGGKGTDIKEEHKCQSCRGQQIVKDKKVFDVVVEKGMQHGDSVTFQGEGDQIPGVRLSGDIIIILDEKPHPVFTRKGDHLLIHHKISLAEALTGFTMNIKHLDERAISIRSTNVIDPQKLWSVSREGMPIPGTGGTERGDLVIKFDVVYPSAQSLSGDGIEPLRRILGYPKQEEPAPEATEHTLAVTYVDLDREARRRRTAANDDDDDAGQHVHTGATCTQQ
Excerpt: ATPase assay, colorimetric phosphate release on TbHsp70.c-Tbj2 | in the presence of Tbj2, methylene blue enhanced the ATPase activity of TbHsp70.c

TbHsp70.c [4] = molecular target: T1, TbHsp70.c; details: 30 µM quercetin; 0.4 µM protein; 600 µM ATP; 37 °C; no Tbj2
TcHsp70B [5] = molecular target: T2, TcHsp70B; details: 30 µM quercetin; 0.4 µM protein; 600 µM ATP; 37 °C; no Tbj2
TcHsp70B-Tbj2 = molecular target: T4, TcHsp70B-Tbj2 (Trypanosoma cruzi, UniProt P05456); details: 30 µM quercetin; 0.4 µM each protein; 600 µM ATP; 37 °C
T4 construct: gene HSP70; mixed species: recombinant T. cruzi TcHsp70B with recombinant T. brucei co-chaperone Tbj2; with Chaperone protein DnaJ, putative (type I J-protein Tbj2, Trypanosoma brucei)
T4 sequence (P05456 whole entry): as the sequence (P05456 whole entry) above
T4 sequence (Q585V4 1-404 partner): as the sequence (Q585V4 1-404 partner) above

TbHsp70.c-Tbj2 [6] = molecular target: T3, TbHsp70.c-Tbj2; details: 30 µM quercetin; 0.4 µM each protein; 600 µM ATP; 37 °C

## Nc1ncnc2c1ncn2[C@@H]1O[C@H](COP(=O)(O)OP(=O)(O)OP(=O)(O)O)[C@@H](O)[C@H]1O [ATP]
TbHsp70.c [1]
  ATPase assay, colorimetric phosphate release: Inorganic phosphate released by ATP in the presence of each Hsp70 was monitored
TcHsp70B [2]
  ATPase assay, colorimetric phosphate release: Inorganic phosphate released by ATP in the presence of each Hsp70 was monitored

## CN(C)c1ccc2nc3ccc(=[N+](C)C)cc-3sc2c1 [methylene blue]
TbHsp70.c-Tbj2 [3]
  fold increase in Tbj2-stimulated ATPase at 30 μM: 1.5 fold

## O=c1c(O)c(-c2ccc(O)c(O)c2)oc2cc(O)cc(O)c12 [quercetin, 3,3′,4′,5,7-Pentahydroxyflavone]
TbHsp70.c [4]
  basal ATPase inhibition at 30 μM: Our findings suggest that quercetin inhibits the basal ATPase activity of TbHsp70.c
TcHsp70B [5]
  fold inhibition of basal ATPase at 30 μM: 1.3 fold
TcHsp70B-Tbj2
  fold inhibition of Tbj2-stimulated ATPase at 30 μM: 1.4 fold
TbHsp70.c-Tbj2 [6]
  fold inhibition of Tbj2-stimulated ATPase at 30 μM: 9.3 fold
